Assay results taken from ChEMBL document CHEMBL3272337, “Synthesis of a fragment of human parathyroid hormore, hPTH-(44-68)” (J Med Chem, 1977).
Activity calls are given as the source filed them. Peptide text beside a SMILES is read from it.

Columns and labels:
[1] = test system: Gallus gallus; experiment: Induction of PTH-like activity in iv dosed chick by hypercalcemic assay; assay type: functional, organism-based
[2] = molecular target: T1, Adenylate cyclase (Homo sapiens) (UniProt Q8NFM4+O60503+Q08828+P40145+O60266+O95622+O43306+Q08462+P51828); experiment: Inhibition of bPTH-stimulated adenylyl cyclase (unknown origin) activity at 500:1 compound to native hormone molar ratio; assay type: protein assay
[3] = molecular target: T1, Adenylate cyclase (Homo sapiens); experiment: Agonist activity at adenylyl cyclase (unknown origin) at 1.35 x 10^-4 M; assay type: protein assay

CC(C)C[C@H](NC(=O)[C@H](CO)NC(=O)[C@H](CCCCN)NC(=O)[C@H](CCC(=O)O)NC(=O)[C@H](Cc1cnc[nH]1)NC(=O)[C@H](CO)NC(=O)[C@H](CCC(=O)O)NC(=O)[C@@H](NC(=O)[C@H](CC(C)C)NC(=O)[C@@H](NC(=O)[C@H](CC(N)=O)NC(=O)[C@H](CC(=O)O)NC(=O)[C@H](CCC(=O)O)NC(=O)[C@H](CCCCN)NC(=O)[C@H](CCCCN)NC(=O)[C@H](CCCNC(=N)N)NC(=O)[C@@H]1CCCN1C(=O)[C@H](CCCNC(=N)N)NC(=O)[C@H](CCC(N)=O)NC(=O)[C@H](CO)NC(=O)CNC(=O)[C@H](C)NC(=O)[C@H](CC(=O)O)NC(=O)[C@@H](N)CCCNC(=N)N)C(C)C)C(C)C)C(=O)NCC(=O)O (H-RDAGSQRPRKKEDNVLVESHEKSLG-OH)
inactive: Activity [1] | inhibition [2] | Activity [3]
